Test results reported in patent publication US9266954B2, “Methods for modulating D1-D2 dopamine receptor coupling and function” (Centre for Addiction and Mental Health, priority 2008, dated 2016).
Ends that are not written are not given here.

How the values were obtained:
[1] = target: T1, HEK-293T cells co-expressing D1 and D2 receptors (Homo sapiens, UniProt P14416+P21728); assay: Fluo-4AM fluorescence measurement of intracellular Ca^2+ in HEK-293T cells co-expressing D1 and D2 receptors; assay type: cell-based; details: pretreatment 10 μM
T1 construct: expressed in transfected cells; host or cells: HEK-293T
Description: Fluorescence values were monitored using a PerkinElmer multiwell plated fluorometer, collected at 3-s intervals for 150 s. (A.F.U.: arbitrary fluorescence units).
To investigate the functional implication of the D1-D2 coupling, we examined the ability of this complex to promote Gq/11 signaling as indexed by changes in intracellular Ca^2+ levels^83-85.

[2] = test system: D2R; assay: Western blot of D2R levels in striata of chronically treated rats; assay type: in vivo; details: rat striata; 10 mg/kg/day subcutaneously for 14 days
[3] = test system: D1R; assay: Western blot of D1R levels in striata of chronically treated rats; assay type: in vivo; details: rat striata; 10 mg/kg/day subcutaneously for 14 days
[4] = test system: D1-D2 coupling; details: rat, in vivo, sc, 10 mg/kg/day
[5] = target: T2, D1 receptors (Rattus norvegicus, UniProt P18901); assay: GST-fusion protein affinity pull-down of D1 receptor from solubilized rat striatum; assay type: binding; details: FIG. 1C-1E
T2 construct: D1 receptor was specifically pulled down by GST-D2IL3-L in detergent extracts of rat striatum; from tissue; host or cells: rat striatum, detergent-solubilized
Description: (§1) To confirm previous reports of a D1-D2 receptor complex we used rat striata in co-immunoprecipitation (co-IP) experiments. […] In an attempt to define the structural basis for the observed D1-D2 coupling, we carried out affinity purification using GST (glutathione-S-transferase)-fusion proteins encoding the D1CT and the third intracellular loop (D1IL3), since both D1CT: A332-T446 and D1IL3: R219-K272 contain putative consensus sequences for receptor phosphorylation, desensitization and potential binding sites for various proteins important for signalling (e.g. G proteins, NMDA receptor NR1, NR2A subunits)^81-82. […] To locate the interacting site on D2R, GST-fusion proteins encoding IL3 from both the D2 short (D2S) and D2 Long (D2L) (GST-D2IL3-L: K211-Q373, GST-D2IL3-S:K211-[…]) were used in affinity purification assays. […] Since the D2L and D2S are differentiated by the additional 29 amino-acid within the third intracellular loop, the fact that only D2L but not D2S interacts with D1R made us suspect that this specific 29 amino-acid may contain the D1-D2 interacting site.

[6] = target: T3, D1-D2 interaction (Rattus norvegicus, UniProt P18901); assay: competitive co-immunoprecipitation of D1 receptor with D2 receptor in rat striatum; assay type: binding; details: preincubation, FIG. 1G
T3 construct: from tissue; host or cells: rat striatum
Description: The ability of D1 receptor to co-immunoprecipitate with D2 receptor is inhibited by the addition of GST-D2IL3-29-2 in a concentration dependent manner;
as §1

[7] = target: T4, D1 tail (Homo sapiens, UniProt P21728); assay: in vitro binding assay with S^35-D1 tail probe; details: FIG. 1F
T4 construct: D1CT A332-T446
T4 sequence (P21728 332-446): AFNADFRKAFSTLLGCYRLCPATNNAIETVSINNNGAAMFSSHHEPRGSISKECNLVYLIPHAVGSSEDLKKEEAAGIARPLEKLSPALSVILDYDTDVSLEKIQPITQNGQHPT
Description: as §1

[8] = test system: D2 receptors; details: rat, in vivo

T2 sequence (P18901 whole entry, the tested form may be a part): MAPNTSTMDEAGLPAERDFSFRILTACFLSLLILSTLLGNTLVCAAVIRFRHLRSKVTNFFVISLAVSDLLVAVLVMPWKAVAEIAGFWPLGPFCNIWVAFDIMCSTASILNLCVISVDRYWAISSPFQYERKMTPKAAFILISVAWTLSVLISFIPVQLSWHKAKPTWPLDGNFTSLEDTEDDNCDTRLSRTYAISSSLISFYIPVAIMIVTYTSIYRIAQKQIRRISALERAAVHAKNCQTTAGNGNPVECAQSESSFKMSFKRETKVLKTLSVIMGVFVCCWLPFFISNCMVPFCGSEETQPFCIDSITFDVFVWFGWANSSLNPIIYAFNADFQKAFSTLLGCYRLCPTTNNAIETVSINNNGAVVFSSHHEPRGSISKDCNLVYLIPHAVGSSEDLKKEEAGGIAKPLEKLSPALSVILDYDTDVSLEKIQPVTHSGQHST
T1 sequence (P21728 whole entry): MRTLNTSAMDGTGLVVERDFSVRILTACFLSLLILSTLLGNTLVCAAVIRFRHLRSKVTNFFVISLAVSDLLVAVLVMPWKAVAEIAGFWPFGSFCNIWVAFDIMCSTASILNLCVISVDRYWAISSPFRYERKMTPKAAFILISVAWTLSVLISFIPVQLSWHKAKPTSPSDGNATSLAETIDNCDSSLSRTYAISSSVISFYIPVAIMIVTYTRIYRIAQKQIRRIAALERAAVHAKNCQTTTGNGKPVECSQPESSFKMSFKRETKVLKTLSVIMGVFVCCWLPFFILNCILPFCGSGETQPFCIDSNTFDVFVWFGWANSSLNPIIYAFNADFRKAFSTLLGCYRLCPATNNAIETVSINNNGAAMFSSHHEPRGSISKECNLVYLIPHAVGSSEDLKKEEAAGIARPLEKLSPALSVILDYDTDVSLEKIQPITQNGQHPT
T1 sequence (P14416 whole entry): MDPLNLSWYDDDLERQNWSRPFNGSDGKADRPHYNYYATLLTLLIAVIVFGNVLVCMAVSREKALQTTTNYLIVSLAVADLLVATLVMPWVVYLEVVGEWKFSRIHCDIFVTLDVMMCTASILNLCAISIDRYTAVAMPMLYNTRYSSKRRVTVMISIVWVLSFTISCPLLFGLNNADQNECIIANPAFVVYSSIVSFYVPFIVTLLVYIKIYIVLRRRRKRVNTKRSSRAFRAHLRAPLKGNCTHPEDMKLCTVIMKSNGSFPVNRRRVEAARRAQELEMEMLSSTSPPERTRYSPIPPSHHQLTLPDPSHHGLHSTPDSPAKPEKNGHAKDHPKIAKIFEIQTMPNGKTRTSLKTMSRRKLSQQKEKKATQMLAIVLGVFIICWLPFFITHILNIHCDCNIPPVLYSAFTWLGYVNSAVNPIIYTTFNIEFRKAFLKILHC
T3 sequence (P18901 whole entry): as the sequence (P18901 whole entry, the tested form may be a part) above

With COc1ccc2c(c1)CC[C@@H]1[C@@H]2CC[C@]2(C)[C@@H](NCCCCCCN3C(=O)C=CC3=O)CC[C@@H]12 [U73122] as the molecule, how does the “block of the Ca^2+ increase induced by co-activation with 10 μM SKF81297 and 10 μM quinpirole” value [1] read?
Its value is “inhibited the increase in Ca^2+ levels”.

What does the source list for CN(C)CCCN1c2ccccc2CCc2ccccc21 [imipramine]?
D2R levels (Western blot) vs control rats [2]: no significant change; D1R levels (Western blot) vs control rats [3]: no significant change; D1-D2 coupling (co-immunoprecipitation) [4]: decrease in D1-D2 coupling

“GST-D2LIL3-29-2: GST-fusion protein encoding D2LIL3-29-2: I256-V270 (IMKSNGSFPVNRRRV; also: GST fusion protein)” was tested. Which “pull-down of D1 receptors” value [5] did it give?
Its value is “can successfully pull-down D1R”.

What about the “inhibition of D1-D2 interaction as indexed by co-immunoprecipitation” value [6] of the same molecule?
Its value is “inhibits the D1-D2 interaction as indexed by the co-immunoprecipitation in a concentration dependent manner”.

And the “binding of S^35-D1 tail probe” value [7]?
Its value is “specifically bound”.

With CCN1CCC[C@H]1CNC(=O)c1c(O)c(Cl)cc(Cl)c1OC [raclopride] as the molecule, how does the “block of the Ca^2+ increase induced by co-activation with 10 μM SKF81297 and 10 μM quinpirole” value [1] read?
The value was “blocked”.

For O=C(CCCN1CCC(O)(c2ccc(Cl)cc2)CC1)c1ccc(F)cc1 [haloperidol], which “direct immunoprecipitated D2 receptors” value [8] is on record?
Its value is “remain unchanged”.

“GST-D2LIL3-29-1: GST-fusion protein encoding D2LIL3-29-1: G242-V255 (GNCTHPEDMKLCTV; cysteine pairing not given here; also: GST fusion protein)” was tested. Which “pull-down of D1 receptors” value [5] did it give?
The value was “not”.

What about the “binding of S^35-D1 tail probe” value [7] of the same molecule?
The value was “not”.
